Results reported in a melting point compilation (Tetko et al.; mined from patent text by program, amines drawn as free bases though some values may be those of a salt).

Row | SMILES | melting point
1 | CSc1nc(NN2CCCCC2)c2ncn(C3OC(CCl)C(O)C3O)c2n1 (configuration not stated) | 213 to 215 °C
2 | O=C(O)Cc1ccc(NC(=O)C(COc2ccccc2)NS(=O)(=O)c2ccc(Cl)cc2)cc1 (racemic) | 190 to 192 °C
3 | COc1cc2sc(C(=O)Cl)c(Cl)c2cc1OC | 191 to 199 °C
4 | COC(=O)C(C)=Cc1cc(NC(=S)N2CCCCN2)ccc1Cl | 120 to 121 °C
5 | COc1ccc(C(=O)CCC(=O)O)cc1Cl | 187 to 189 °C
6 | CCOC(=O)NNc1ccc(-c2ccccc2)nn1 | 158 to 160 °C
7 | COCCCc1nnc(-c2ccc(-c3ccccc3)nc2)n1-c1cccc(C#N)c1C | 144 to 145 °C
8 | CC(CCCO[Si](C)(C)C(C)(C)C)C1CCC2C3=CC=C4C(C)(C)C(O[Si](C)(C)C(C)(C)C)CCC4(C)C3CCC21C (configuration not stated) | 98 to 106 °C
9 | CS(=O)(=O)OCC1OC2CC(CC(OS(C)(=O)=O)C2)O1 (configuration not stated) | 137 to 138 °C
10 | CCC(=O)c1cc[nH]c(=O)c1 | 168 °C
11 | O=C1c2cscc2Nc2ccccc2N1Cc1ccc(Cl)c(C(F)(F)F)c1 | 181 to 183 °C
12 | CC(C)(C)OC(=O)N1CCO[C@@H]2Cc3c(O)cccc3C[C@H]21 | 203 to 205 °C
13 | CC(C)(N)c1ccc(-c2nc(Nc3ccc(CCn4ccnc4)cc3)ncc2C#N)cc1 | 184 °C
14 | CCC(C)(C)NC(=S)Nc1cc(F)cc(Br)c1 | 123 to 124 °C
15 | O=C1Nc2cc(Cl)ccc2/C1=C\c1cccc(C(F)(F)F)c1 | 157 to 160 °C
16 | Cn1c(CCN2CCN(Cc3ccccc3)CC2)nc2cc(Br)c3ccccc3c21 | 155 to 157 °C
17 | CN(CC(=O)[C@H](Cc1ccccc1)NC(=O)NC1CCCCC1)C(=O)N1CCC[C@H]1C(=O)O | 75 to 110 °C
18 | Cc1cccc(Cl)c1NC(=O)Nc1ccc(CC(=O)NC(CC(C)C)c2ncc(CCC(=O)O)s2)cc1 (configuration not stated) | 160 to 162 °C
19 | CC1(C)CC(=O)c2cc3c(cc2O1)OCCO3 | 118 to 119 °C
20 | Cc1ccc(S(=O)(=O)OCC2Cc3cccc(-c4ccccc4C(F)(F)F)c3O2)cc1 (configuration not stated) | 116 to 118 °C
21 | Nc1sc2c(c1C(=O)c1ccc(Cl)cc1)CCS2 | 146 to 150 °C
22 | CC(C)(C)c1cc(I)c(O)c(C=O)c1 | 77 °C
23 | COc1ccc(Cl)cc1C(=O)N(CCCC(=O)O)c1ccc(OC)c(-c2ccccc2)c1 | 155 to 156 °C
24 | CCc1cc(C2(c3ccc(F)c(-c4cncc(F)c4)c3)N=C(N)N(C)C2=O)cc(CC)n1 (configuration not stated) | 155 to 157 °C
25 | CCOc1cc2c(Nc3cc(OC)c(Cl)cc3Cl)c(C#N)cnc2cc1OCCN1CCN(C)CC1 | 141 to 143 °C
26 | COCC(C)N(Cc1ccc(OC)c(OC)c1)C(=O)C(Cl)Cl (configuration not stated) | 75 to 76 °C

Row | SMILES | melting point
27 | CCCCCCCCCC(=O)Oc1ccc2cc(C(=N)N)ccc2c1 | 165 to 168 °C
28 | C=C=COc1ccccc1S(=O)(=O)NC(=O)Nc1nc(C)nc(OC)n1 | 150 to 151 °C
29 | CCCCCCCCCCCCCCCCCNC(=O)O[C@@H]1CCCO[C@H]1COCc1ccccc1 (relative stereo) | 61 to 63 °C
30 | COCCOc1ccc2c(c1)n(C1CCCCC1)c(=O)n2S(=O)(=O)c1ccc(C(=O)O)cc1OC | 105 °C
31 | Cc1cn(C(C)(C)C(=O)Nc2ccccc2)nc1-c1ccccc1 | 116 to 119 °C
32 | Cc1nc(N)c2nc(CONC(C)C)n(CCCCNC(=O)c3ccccc3)c2c1C | 161 to 162 °C
33 | CCOC(=O)Nc1nc(C)c(-c2nc3ccccc3c(=O)n2-c2ccc(Cl)cc2)s1 | > 275 °C
34 | O=C1OC(=O)c2cnccc21 | 72 to 74 °C
35 | CN(C)C(=S)SC(C[N+](=O)[O-])c1ccccc1Cl (configuration not stated) | 102 to 104 °C
36 | COc1cc2sc(C#N)cc2c(Cl)c1OC | 159 to 160 °C
37 | COC1SC(c2ccncc2)=C(C)NC1=O (configuration not stated) | 134 to 135 °C
38 | Cc1nc2cccc(OCC(C)(C)NC(=O)C(C)C)c2c(N)c1C(=O)O | 184 to 186 °C
39 | N#CC(=O)c1cccc(Cl)c1 | 146 to 148 °C
40 | Cc1cc(C(C#N)=CN(C)C)ccn1 | 126 °C
41 | CCn1nc(C)c2nc(C)nc(N3CC3)c21 | 66 to 69 °C
42 | O=C(O)C=CC(=O)NCCC(=O)O | 150 to 152 °C
43 | COC(=O)c1ccc(OCCCN(C(=O)CCC(=O)Nc2ccc(Cl)cc2)c2ccc(Cl)cc2)cc1 | 128 to 130 °C
44 | COCC(=O)c1cc(-c2ccc(S(C)(=O)=O)cc2)n(-c2ccc(F)cc2)n1 | 151 to 154 °C
45 | COc1nsc2c1C(=O)CCC2 | 45 to 46 °C
46 | COc1ccc2c(ccn2-c2ccc(Br)cc2)c1 | 90 to 91 °C
47 | O=C1c2ccccc2C(=O)N1Nc1ccc(Br)cc1 | 205 to 206 °C
48 | CC(=O)N1OCC(=O)N(CO)C1c1ccccc1 (configuration not stated) | 123 to 126 °C
49 | O=S(=O)(CCCl)C1=NN(S(=O)(=O)CCCl)CS1 | 143 °C
50 | NS(=O)(=O)Oc1ccc2c(C3CCCCC3)csc2c1 | 128 °C
51 | CCn1cc(C(=O)O)c(=O)c2cc3oc(C(=O)O)cc3nc21 | > 300 °C
52 | CN(C)C1(c2ccccc2)CCC(CNC(=S)NCCc2c[nH]c3ccccc23)CC1 (configuration not stated) | 92 to 95 °C

Row | SMILES | melting point
53 | O=[N+]([O-])c1cc(C(F)(F)F)c(Cl)c([N+](=O)[O-])c1NC1CC1 | 86 to 87 °C
54 | COc1ccc(-c2ncnc(-c3ccc(C(F)(F)F)cc3F)c2N)c(O)c1 | 100 to 103 °C
55 | CCCCCSc1cc(C(=O)O)cc(N)c1Oc1ccccc1 | 98 °C
56 | C#Cc1ccccc1-c1ccc(I)cc1 | 114 °C
57 | Nc1ccc(S(=O)(=O)Nc2cc(Br)nc(Br)c2)cc1 | 220 to 222 °C
58 | CCOC(=O)C(Br)=C(Br)c1ccc(Cl)cc1 | 67 to 68 °C
59 | Cc1cccc(C)c1N(CC(C)OS(C)(=O)=O)S(C)(=O)=O (configuration not stated) | 111 to 114 °C
60 | Cc1nc2ccc(OC3SCC(O)C(O)C3O)cc2s1 (configuration not stated) | 184 °C
61 | COCOc1ccccc1-c1cc(-c2cccc(C(=O)OC)c2OC)c(C#N)c(NC(=O)c2ccco2)n1 | 140 to 141 °C
62 | CCOc1ccc(N=c2ccn3ccccc3c2)cc1 | 157 to 159 °C
63 | C[C@H](Cc1cc2c(c(C(N)=O)c1)N(CCCCO)CC2)NCCOc1ccccc1OCC(F)(F)F | 116 to 118 °C
64 | N#Cc1cnc2sc(-c3ccccc3)cc2c1Oc1ccc2[nH]ccc2c1 | 219 to 221 °C
65 | ICCCC1(c2ccccc2)OCCO1 | 71 to 73 °C
66 | OCc1cccc(-c2csc(-c3cn([C@H]4CN5CCC4CC5)nn3)c2)c1 | 211 °C
67 | COc1ccc(NC2(C#N)CCCCC2)cn1 | 121 to 123 °C
68 | CON=C(C1=NCCS1)c1ccccc1COc1cc(C)ccc1C | 79 to 82 °C
69 | CC1(C)CC(=O)C2=C(C1)NC1=C(C(=O)CC(C)(C)C1)C2c1cccc(Oc2ccccc2)c1 | 205 to 207 °C
70 | CS(=O)(=O)Nc1ccc([N+](=O)[O-])cc1C(=O)c1ccc(F)cc1F | 172 to 178 °C
71 | N#Cc1ccc(C(=O)Cc2ccc(C#N)cc2[N+](=O)[O-])cc1 | 188 to 190 °C
72 | Oc1ccccc1-n1nnc2cccnc21 | 165 to 166 °C
73 | CC#CCOc1cc2c(cc1CCC)OCO2 | 39 to 40 °C
74 | CCc1cc(OCc2ccc3oc(-c4ccccc4C(=O)O)nc3c2)c2c(n1)CCCC2 | 229 to 231 °C
75 | C=CCn1c(-c2cccnc2)n[nH]c1=O | 120 to 125 °C
76 | CC(=O)Nc1ccc(Sc2c([N+](=O)[O-])cc(C(=O)O)cc2S(N)(=O)=O)cc1 | 168 °C
77 | Cn1ncc(C(=O)O)c1C(=O)Nc1ccc2nc(N3CCOCC3)nn2c1 | 294 °C
78 | COc1ccc(S(=O)(=O)N(CCO)c2ccccc2/C=C/c2ccncc2)cc1 | 198 to 200 °C

Row | SMILES | melting point
79 | CNC(=O)c1cc2c(cn1)[nH]c1ccccc12 | 264 to 266 °C
80 | O=c1oc(-c2ccc(OCc3ccccc3)cc2)cc(O)c1SCCc1ccccc1 | 139 to 142 °C
81 | Nc1ccc(C(=O)N2Cc3ccccc3Sc3ccccc32)cc1 | 52 to 55 °C
82 | COC(=O)c1c(C(=O)OC)c2n(c1C)Cc1c(c3ccccc3n1C)C2 | 240 to 241 °C
83 | O=c1[nH]c2ccc([C@H]3CC[C@H](NCCS(=O)(=O)c4ccccc4)CC3)cc2o1 | 202 to 208 °C
84 | CC(=O)OC1CCC2(C)C(=CC(=O)C3C2CCC2(C)C(C(C)CCCC(C)(C)C)CCC32)C1 (configuration not stated) | 183 to 186 °C
85 | O=C(Nc1cccc(S(=O)(=O)NCc2ccncc2)c1)c1cnn2c(C(F)F)cc(-c3ccc(C(F)(F)F)cc3)nc12 | 221 °C
86 | CC1(C)N=C(Cl)c2cc(C#N)ccc2O1 | 124 to 126 °C
87 | CSc1ncc(Br)c(P(=O)(c2ccccc2)c2ccccc2)n1 | 124 to 127 °C
88 | COc1cc(-c2ccc(C(=N)NO)cc2)cc(-c2nc3cc(C(=N)NO)ccc3[nH]2)c1O | 319 to 321 °C
89 | Cc1nc2cnccc2n1-c1ccc(CC(=O)O)cc1 | 226 to 230 °C
90 | CCn1cc(C(=O)O)c(=O)c2ccc(N3CCN(C)CC3)cc21 | 215 °C
91 | N#Cc1cccc(Cl)c1-c1[nH]c(=O)c(-c2ccccc2)cc1C(=O)O | 279 °C
92 | CCOC(=O)COc1ccc2c(c1)C(=O)CCC2 | 84 to 86 °C
93 | O=C(NNS(=O)(=O)c1ccc([N+](=O)[O-])cc1)c1ccccc1 | 193 to 195 °C
94 | CC(C)(CN)c1ccc2nc(-c3ccccc3)[nH]c2c1 | 185 to 187 °C
95 | CCC(=O)C1=C(O)CC(c2ccc(Oc3cccc(S(C)(=O)=O)c3)cc2)CC1=O (configuration not stated) | 110 to 114 °C
96 | CC(n1ncn(-c2ccc(N3CCN(c4ccc(O)cc4)CC3)cc2)c1=O)C(F)(F)F (configuration not stated) | 215 °C
97 | CCOC(=O)C1=C(N)N=C(OCC)C(C(=O)OCC)C1c1cccc([N+](=O)[O-])c1 (configuration not stated) | 129 °C
98 | COc1cnccc1CCCOc1cccnc1Oc1ccccc1 | 101 to 102 °C
99 | CCCCCCCCOC(=O)C(CC(C)C)NC(=O)c1cc([N+](=O)[O-])cc([N+](=O)[O-])c1 (configuration not stated) | 71 to 73 °C
100 | Cc1ccc(Oc2ccc(-n3cc(C(=O)O)cn3)cc2)c(O)c1 | 231 to 233 °C
101 | CCCc1c(OCCCCCOc2ccccc2/C=C/C(=O)O)ccc2c1OCCC2=O | 123 to 126 °C
102 | CC(O)CN(CC(C)O)C(=O)c1ccc(C(=O)N2CCN(c3ncccc3NC(C)C)CC2)cc1 (configuration not stated) | 73 to 75 °C
